Measured values as given in publication PMC6915728 (Nature Communications, 2019).
Where two headings read alike, the source gives them in different places.

Key:
[1] = system: E. coli K12 BW25113 carrying the pooled ASKA overexpression plasmid library (~4400 ORFs); assay: Chemical-genetic profiling: pooled competitive growth of the ASKA gene-overexpression library with and without AMP, deep sequencing readout; format: cell-based, Escherichia coli
Description: We generated chemical-genetic interaction profiles for a diverse set of AMPs (Table 1) by screening them against a comprehensive library of gene overexpressions in E. coli[21]. Increasing gene dosage is a widely applied approach to reveal the targets of small-molecule antibiotics[22],[23]. It also informs on the ‘latent resistome’, that is, the collection of genes where a change from native expression level enhances resistance to a particular drug[24]. We applied a sensitive competition assay by monitoring growth of a pooled plasmid library, overexpressing all the E. coli ORFs (Fig. 1a), as we reported earlier. Specifically, E. coli cells carrying the pooled plasmid collection were grown in the presence or absence of one of the 15 AMPs tested, at a sub-inhibitory concentration that increased the doubling time of the whole population by 2-fold. Following 12 generations of growth, the plasmid pool was isolated from each selection and the relative abundance of each plasmid was determined by a deep sequencing readout (see Methods).
We carried out chemical-genetic profiling to determine the impact of the overexpression of each E. coli ORF on bacterial susceptibility to each of the 15 different AMPs. To this end, we used the complete set of E. coli K-12 Open Reading Frame Archive (ASKA) plasmid library (GFP minus) where each E. coli ORF is cloned into a high copy number expression plasmid (pCA24N-ORFGFP(-)). Prior to screening, the ASKA library was grown in the original host strain E. coli K-12 AG1 in 96-well plates (growth conditions: 37 °C, 280 rpm, LB medium). An equal aliquot of each member of the ASKA library (each well of the 96-well plates) was pooled together and the plasmid DNA (pCA24N-ORF-GFP(-)) was isolated and transformed into E. coli K12 BW25113 strain[51]. To obtain a negative control strain not having any overexpressed gene, the plasmid without a cloned ORF (pCA24N-noORF) was also transformed into the same E. coli strain. Then, on the pooled collection, we applied a previously reported competitive growth assay. Specifically, the pooled overexpression library and the control strain were grown in parallel in MS medium supplemented with 20 µg per ml chloramphenicol and the overexpression was induced by 100 µM isopropyl-ß-D-thiogalactopyranoside (IPTG). After 1 h induction, ~5 × 10^5 bacterial cells from the library were inoculated into each well of a 96-well microtiter plate containing a concentration gradient of an AMP in the MS medium supplemented with 20 µg per ml chloramphenicol and 100 µM IPTG. At the same time, both the library and the control strain with the empty plasmid were grown in the absence of any AMPs. We took special care to grow both of these samples in the exact same conditions as the samples in the presence of AMPs. Bacterial growth was monitored in a microplate reader (Biotek Synergy 2) for 24 h. At the end of the exponential growth phase, we selected those wells in which the doubling time of the cell population was increased by 2-fold. Then, from these wells, cells were split into four equal proportion and each was transferred into 20 mL of MS medium supplemented with the corresponding AMP in four different concentrations in the range that slowed down growth by two-fold in the microtitre plate. […] The rationale for this 2-step process was to maintain competition in exponential phase for 12 generations of growth, efficiently control the growth rate in a reproducible manner and obtain the plasmid pool with standard DNA isolation protocol (innuPREP plasmid mini Kit, Analytik Jena AG) in a yield that is enough for the downstream analysis. The cultures were vigorously shaken along the entire protocol to make sure that the cultures are completely homogeneous and therefore biasing interactions between clones (such as trans-resistance) was minimized. […]

[2] = system: AMP-evolved E. coli lines; assay: Cross-resistance / collateral sensitivity: relative MIC change of 38 laboratory-evolved AMP-resistant lines vs parental strain; format: cell-based, Escherichia coli; conditions: measured here
Description: Here, we extended this dataset by measuring susceptibility changes of the same evolved lines to four additional AMPs using identical protocols to represent AMPs from all four clusters (Supplementary Fig. 15a, see also Methods). Overall, the resulting dataset of susceptibility profiles provides a comprehensive map of cross-resistance and collateral sensitivity between AMPs representing various modes of action.
To characterize the cross-resistance of the 38 E. coli lineages we obtained relative MIC changes that are, the MIC values of the evolved lines compared to these of the parental strain, from two data sources. First, we used already measured relative MIC changes from Spohn et al. Supplementary data 4[20]. […] Second, we extended this dataset by measuring the relative MIC changes of the same evolved lines to four additional AMPs using identical protocol. […] In this way, AMPs from each cluster were represented in the dataset.
Supplementary Figure 15. […] Relative change in MIC was determined for each evolved line by comparing its MIC to the ancestral cell line (control). […] CAP18-adaped lines were not included in the analysis because CAP18 is known as a membrane-targeting AMP in the literature. c, Cross-resistance interactions are enriched between membrane-targeting AMPs that are in the same chemical-genetic clusters (i.e. AMP pairs within C1 and within C2 clusters) (Significant difference: ** P = 0.0082 from two-sided Fisher’s exact test, n = 61 and 62 for within cluster and between clusters, respectively). […] Source data are provided as a Source Data file.

[3] = system: bacterial species in which the gene showed activity; conditions: cited from earlier work

Sequence	Relative change in MIC (MIC of the AMP-adpated line / MIC of the ancestral strain) ([2]; AMP-adapted line CAP18_2)	Relative change in MIC (MIC of the AMP-adpated line / MIC of the ancestral strain) ([2]; AMP-adapted line CAP18_5)	Relative change in MIC (MIC of the AMP-adpated line / MIC of the ancestral strain) ([2]; AMP-adapted line CAP18_6)	Relative change in MIC (MIC of the AMP-adpated line / MIC of the ancestral strain) ([2]; AMP-adapted line CAP18_8)	Relative change in MIC (MIC of the AMP-adpated line / MIC of the ancestral strain) ([2]; AMP-adapted line CAP18_10)	Relative change in MIC (MIC of the AMP-adpated line / MIC of the ancestral strain) ([2]; AMP-adapted line HBD3_3)	Relative change in MIC (MIC of the AMP-adpated line / MIC of the ancestral strain) ([2]; AMP-adapted line HBD3_6)	Relative change in MIC (MIC of the AMP-adpated line / MIC of the ancestral strain) ([2]; AMP-adapted line HBD3_8)	Relative change in MIC (MIC of the AMP-adpated line / MIC of the ancestral strain) ([2]; AMP-adapted line HBD3_10)	Relative change in MIC (MIC of the AMP-adpated line / MIC of the ancestral strain) ([2]; AMP-adapted line LL37_1)	Relative change in MIC (MIC of the AMP-adpated line / MIC of the ancestral strain) ([2]; AMP-adapted line LL37_3)	Relative change in MIC (MIC of the AMP-adpated line / MIC of the ancestral strain) ([2]; AMP-adapted line LL37_6)	Relative change in MIC (MIC of the AMP-adpated line / MIC of the ancestral strain) ([2]; AMP-adapted line LL37_7)	Relative change in MIC (MIC of the AMP-adpated line / MIC of the ancestral strain) ([2]; AMP-adapted line LL37_10)	Relative change in MIC (MIC of the AMP-adpated line / MIC of the ancestral strain) ([2]; AMP-adapted line PR39_1)	Relative change in MIC (MIC of the AMP-adpated line / MIC of the ancestral strain) ([2]; AMP-adapted line PR39_2)	Relative change in MIC (MIC of the AMP-adpated line / MIC of the ancestral strain) ([2]; AMP-adapted line PR39_5)	Relative change in MIC (MIC of the AMP-adpated line / MIC of the ancestral strain) ([2]; AMP-adapted line PR39_7)	Relative change in MIC (MIC of the AMP-adpated line / MIC of the ancestral strain) ([2]; AMP-adapted line PR39_10)	Relative change in MIC (MIC of the AMP-adpated line / MIC of the ancestral strain) ([2]; AMP-adapted line PROA_2)	further results
GLRKRLRKFRNKIKEKLKKIGQKIQGFVPKLAPRTDY [CAP18, antimicrobial peptide, source rabbit; disrupts cell membrane; cluster C3]	–	–	–	–	–	–	–	–	–	–	–	–	–	–	–	–	–	–	–	–	Overexpression phenotype, Chemical-genetic profile ([1]; gene waaY, whether the literature phenotype was captured by the overexpression screen): Confirmed
RFRPPIRRPPIRPPFYPPFRPPIRPPIFPPIRPPFRPPLGPFP [BAC5, Bactenecin 5, antimicrobial peptide from bovine neutrophils; cluster C4]	1	0.915	0.915	1	0.915	1	0.9167	1	1	0.915	1	0.915	1	0.915	>4.30	2.0736	4.3	1.9	2.986	1.2	Overexpression phenotype, Chemical-genetic profile ([1]; gene ptrB, whether the literature phenotype was captured by the overexpression screen (9 out of 13 captured)): Confirmed; Chemical-genetic score ([1]; overexpressed gene mlaD, read numbers in presence vs absence of AMP, sub-inhibitory dose doubling the doubling time, 12 generations, average of biological replicates): -2.101 log2 fold change; Relative change in MIC (MIC of the AMP-adpated line / MIC of the ancestral strain) ([2]; AMP-adapted line PEX_1): 1.1; Relative change in MIC (MIC of the AMP-adpated line / MIC of the ancestral strain) ([2]; AMP-adapted line PEX_4): 1.1; Relative change in MIC (MIC of the AMP-adpated line / MIC of the ancestral strain) ([2]; AMP-adapted line PEX_5): 1; Relative change in MIC (MIC of the AMP-adpated line / MIC of the ancestral strain) ([2]; AMP-adapted line PEX_6): 1.1; Relative change in MIC (MIC of the AMP-adpated line / MIC of the ancestral strain) ([2]; AMP-adapted line PEX_7): 1; Relative change in MIC (MIC of the AMP-adpated line / MIC of the ancestral strain) ([2]; AMP-adapted line PROA_3): 1; Relative change in MIC (MIC of the AMP-adpated line / MIC of the ancestral strain) ([2]; AMP-adapted line PROA_7): 1.1; Relative change in MIC (MIC of the AMP-adpated line / MIC of the ancestral strain) ([2]; AMP-adapted line PROA_8): 1.1; Relative change in MIC (MIC of the AMP-adpated line / MIC of the ancestral strain) ([2]; AMP-adapted line PROA_9): 1.1; Relative change in MIC (MIC of the AMP-adpated line / MIC of the ancestral strain) ([2]; AMP-adapted line PXB_2): 1.32; Relative change in MIC (MIC of the AMP-adpated line / MIC of the ancestral strain) ([2]; AMP-adapted line PXB_5): 1.1; Relative change in MIC (MIC of the AMP-adpated line / MIC of the ancestral strain) ([2]; AMP-adapted line PXB_6): 1; Relative change in MIC (MIC of the AMP-adpated line / MIC of the ancestral strain) ([2]; AMP-adapted line PXB_8): 1; Relative change in MIC (MIC of the AMP-adpated line / MIC of the ancestral strain) ([2]; AMP-adapted line PXB_10): 0.915
ILPWKWPWWPWRR [IND, Indolicidin, antimicrobial peptide from bovine neutrophils; cluster C3]	–	–	–	–	–	–	–	–	–	–	–	–	–	–	–	–	–	–	1.3	–	Gene that modulates bacterial susceptibility to the AMP ([3]; Bordetella pertussis, ref http://www.ncbi.nlm.nih.gov/pmc/articles/PMC4136009/): lgmA, IgmB, IgmC; Gene that modulates bacterial susceptibility to the AMP ([3]; Staphylococcus aureus, ref http://onlinelibrary.wiley.com/doi/10.1111/j.1365-2958.2007.05986.x/epdf): apsS
GIGKFLKKAKKFGKAFVKILKK [PEX, Pexiganan, synthetic Magainin derivative; disrupts cell membrane; cluster C2]	3.036	>3.6	1.964	2.986	2.488	3.648	2.089	3.578	2.72	1.584	1.32	1.22	2.986	2.093	1.464	1.1	1.1	1.1	1	1.1	Relative change in MIC (MIC of the AMP-adpated line / MIC of the ancestral strain) ([2]; AMP-adapted line BAC5_3): 1; Relative change in MIC (MIC of the AMP-adpated line / MIC of the ancestral strain) ([2]; AMP-adapted line BAC5_5): 1; Relative change in MIC (MIC of the AMP-adpated line / MIC of the ancestral strain) ([2]; AMP-adapted line BAC5_7): 1.1; Relative change in MIC (MIC of the AMP-adpated line / MIC of the ancestral strain) ([2]; AMP-adapted line BAC5_10): 1.1; Relative change in MIC (MIC of the AMP-adpated line / MIC of the ancestral strain) ([2]; AMP-adapted line PROA_3): 1.1; Relative change in MIC (MIC of the AMP-adpated line / MIC of the ancestral strain) ([2]; AMP-adapted line PROA_7): 0.915; Relative change in MIC (MIC of the AMP-adpated line / MIC of the ancestral strain) ([2]; AMP-adapted line PROA_8): 1.2; Relative change in MIC (MIC of the AMP-adpated line / MIC of the ancestral strain) ([2]; AMP-adapted line PROA_9): 1; Relative change in MIC (MIC of the AMP-adpated line / MIC of the ancestral strain) ([2]; AMP-adapted line PXB_2): 1.32; Relative change in MIC (MIC of the AMP-adpated line / MIC of the ancestral strain) ([2]; AMP-adapted line PXB_5): 1.844; Relative change in MIC (MIC of the AMP-adpated line / MIC of the ancestral strain) ([2]; AMP-adapted line PXB_6): 1.6368; Relative change in MIC (MIC of the AMP-adpated line / MIC of the ancestral strain) ([2]; AMP-adapted line PXB_8): 1.844; Relative change in MIC (MIC of the AMP-adpated line / MIC of the ancestral strain) ([2]; AMP-adapted line PXB_10): >3.6
